The numbers were not newly measured in patent publication US20140228287A1, “1-[(3-CYANO-PYRIDIN-2-YL)METHYL]-3-METHYL-7-(2-BUTYN-1-YL)-8-[3-(R)-AMINO-PIPERIDIN-1-YL]-AXANTHINE FOR THE TREATMENT OF A METABOLIC DISORDER OF A PREDOMINANTLY CARNIVOROUS NON-HUMAN ANIMAL” (BOEHRINGER INGELHEIM VETMEDICA GMBH, priority 2010, published 2014), which cites them from elsewhere.

For data set [1], the system named is plasma glucagon. The note with it: in vivo; cited from earlier work.
Data set [2] relates to GLP-1. The note with it: after administration to rats and to cats; cited from earlier work.

For the molecule `N#Cc1ccc(NCCNCC(=O)N2CCC[C@H]2C#N)nc1` [NVP-DPP728], the “plasma glucagon concentration in cats” value in data set [1] is “reduce the plasma glucagon concentration”. Consider `CC#CCn1c(N2CCC[C@@H](N)C2)nc2c1c(=O)n(Cc1nc(C)cc3ccccc13)c(=O)n2C` [1-[(3-Methyl-isochinoline-1-yl)methyl]-3-methyl-7-(2-butin-1-yl)-8-((R)-3-amino-piperidine-1-yl)-xanthine], for which the “effect of GLP-1” value in data set [2] is recorded as “the effect of GLP-1 could be prolonged”.
